From patent publication US20020045669A1, “Anti-arrhythmic composition and methods of treatment” (priority 2000, published 2002)
“Also recorded” adds a separate entry of the source.

Legend:
[1] = tested on: DOCA/saline pre-treated rats challenged with isoproterenol; assay: Prevention of isoproterenol-induced arrhythmia and mortality in DOCA/saline pre-treated rats; format: in vivo, rat; conditions: for % SURVIVAL / ARRHYTHMIA (number of animals): 20 min before isoproterenol 150 μg/kg s.c.
Procedure: Briefly, rats were anesthetized with sodium pentobarbital (55 mg/kg. i.p.), and a 25 mg pellet of desoxycorticosterone acetate (DOCA) was implanted s.c. in the axillary region. The rats were allowed to recover from the anesthetic and returned to their home cages. The animals were given commercial rat chow and a 1% solution of saline as their drinking fluid ad libitum. The animals were maintained on this regimen for approximately thirty days.
Twenty minutes later, the rats were challenged with a single s.c. dose of isoproterenol, 150 μg/kg. The animals were closely monitored for one hour and any obvious arrhythmic episodes or mortalities were recorded.
(§1) Two kinds of anti-arrhythmic experiments were carried out, both prophylaxis and reversal studies. DOCA-treated animals were either first given the test compounds s.c. followed twenty minutes later by isoproterenol (prevention studies) or isoproterenol followed by the test compound given intravenously after five minutes (reversal studies). The time frames were chosen based on two issues: previous experience with the pharmacokinetics of polyamine analogues and the time required for isoproterenol to induce cardiac abnormalities and death in DOCA-treated rodents.

[2] = tested on: mice exposed to deep chloroform anesthesia; assay: Chloroform anesthesia-induced cardiac arrhythmia (Lawson procedure); format: in vivo; conditions: 100 mg/kg i.p., thirty minutes before chloroform; observed 15 minutes; <2 of three = significant protection
Procedure: In this procedure [Lawson, J. Pharmacol. Exer. Therap., Vol. 160, pages 22-31 (1968)], the test substance [diethylhomospermine (DEHSPM)] is administered i.p. (100 mg/kg) to a group of three mice thirty minutes before exposure to deep chloroform anesthesia and observed during the ensuing 15-minute period.

[3] = tested on: normotensive rats; conditions: earlier results; cited from earlier work
[4] = tested on: DOCA/saline pre-treated rats; assay: Evaluation of blood pressure, heart rate and EKG in DOCA/saline rats; format: in vivo, rat; conditions: continuous monitoring, compound given s.c.
Procedure: Blood pressure and heart rate parameters, as well as an EKG, were evaluated for compounds displaying anti-arrhythmic properties. The animals were implanted with DOCA and maintained on 1% saline as their drinking fluid as discussed above. The animals were anesthetized with Avertin (tribromoethanol, 2.5%), 1 ml/100 g given i.p. and prepared for the recording of blood pressure and the EKG. To allow for the direct measurement of blood pressure, the animals's left carotid artery was cannulated with PE-50 tubing. The tubing was filled with saline and exteriorized dorsally between the animal's shoulders.
After the surgery was completed, the catheter in the carotid artery was connected to a blood pressure transducer (ADInstruments, Inc., Milford, Mass.). To allow for the recording of the EKG, 22 gauge needles were placed s.c. at the rat's left shoulder, right shoulder and left leg. The needles were then attached via alligator clips to a MacLab Bio Amplifier (ADInstruments, Inc., Milford, Mass.). […] A baseline blood pressure, heart rate and EKG were obtained, and the compound under investigation was administered s.c. Twenty minutes later, the animals were challenged with a single dose of isoproterenol, 150 μg/kg s.c. Continuous blood pressure, heart rate and EKG readings were obtained. […]

[5] = tested on: DOCA/saline pre-treated rats with isoproterenol-induced arrhythmia; assay: Arrhythmic reversal studies (established isoproterenol arrhythmia); format: in vivo, rat; conditions: i.v. bolus at one-half of the effective s.c. dose, five minutes after isoproterenol
Procedure: The animals were implanted with a 25 mg pellet of DOCA and maintained on the 1% saline as their drinking fluid as discussed above. The animals were anesthetized with Avertin and prepared for the recording of blood pressure and the EKG. In addition, the animal's left jugular vein was also cannulated with PE-50 tubing. The tubings were filled with saline and exteriorized dorsally between the animal's shoulders. Isoproterenol was administered s.c. at a dose of 150 μg/kg and an arrhythmia was allowed to develop for five minutes. […] Continuous blood pressure, heart rate and EKG readings were obtained. Additional Avertin was given as needed to maintain anesthesia. The hearts of the animals were perfused with buffered formalin immediately after the onset of ventricular fibrillation or one hour after the administration of isoproterenol.
as §1

[6] = DOCA/isoproterenol-treated rats, prophylaxis

SMILES	effect on survival / activity in the model (in words) [1, 6]	% SURVIVAL ([1]; dose 115 μmol/kg s.c.) [%]	ARRHYTHMIA (number of animals) ([1]; dose 115 μmol/kg s.c.)	anti-arrhythmic properties (in words) [1, 6]	also measured
C(CNC1CCNCC1)CNC1CCNCC1 [PIP(3,3,3)]	nor was it found to be active in this model	0	5	–	–
CCNCCCCCCCCCNCC [DE(9), C2H5—NH—(CH2)9—NH—C2H5]	no activity	0	5	–	–
CCNCCCNCCCCNCCCNCC [DESPM(3,4,3), diethylspermine]	none of the three polyamine anti-metabolites tested in this model had any effects on the survival	0	5	–	–
CCNCCCCNCCCCNCCCCNCC [DEHSPM(4,4,4), diethylhomospermine]	none of the three polyamine anti-metabolites tested in this model had any effects on the survival	0	5	–	animals exhibiting cardiac arrhythmia (of three mice) [2]: one; effect on blood pressure [3]: lower blood pressure
FC(F)(F)CNCCCNCCCCNCCCNCC(F)(F)F [FDESPM, Di-β,β,β-trifluoroethylspermine]	–	40	7	some anti-arrhythmic prophylactic behavior	animals surviving ([1]; DOCA/isoproterenol-treated rats, prophylaxis, dose not given): 40%
c1cc(NCCCNc2ccncc2)ccn1 [PYR(3,3,3)]	–	100	2	presented with anti-arrhythmic properties; also recorded: performed best	effects on blood pressure and heart rate [4]: No appreciable effects on blood pressure and heart rate; EKG pattern after treatment in reversal experiment [5]: reverted to a normal appearance; evidence of ischemia in EKG in reversal experiment [5]: little to no evidence of ischemia; % SURVIVAL ([1]; dose 14 μmol/kg s.c.): 40%; ARRHYTHMIA (number of animals) ([1]; dose 14 μmol/kg s.c.): 5; % SURVIVAL ([1]; dose 28 μmol/kg s.c.): 40%; ARRHYTHMIA (number of animals) ([1]; dose 28 μmol/kg s.c.): 5; % SURVIVAL ([1]; dose 59 μmol/kg s.c.): 60%; ARRHYTHMIA (number of animals) ([1]; dose 59 μmol/kg s.c.): 4
CCNCCCNCCCNCCCNCC [DENSPM(3,3,3), diethylnorspermine]	none of the three polyamine anti-metabolites tested in this model had any effects on the survival	–	–	–	effect on blood pressure [3]: lower blood pressure; % SURVIVAL ([1]; dose 231 μmol/kg s.c.): 0%; ARRHYTHMIA (number of animals) ([1]; dose 231 μmol/kg s.c.): 5
c1cc(NCCCCNc2ccncc2)ccn1 [PYR(3,4,3)]	–	60	2	presented with anti-arrhythmic properties	% SURVIVAL ([1]; dose 59 μmol/kg s.c.): 60%; ARRHYTHMIA (number of animals) ([1]; dose 59 μmol/kg s.c.): 2; % SURVIVAL ([1]; dose 231 μmol/kg s.c.): 80%; ARRHYTHMIA (number of animals) ([1]; dose 231 μmol/kg s.c.): 2
CC(C)NCC(O)COc1cccc2ccccc12 (racemic) [Propranolol, d,l-propranolol]	–	–	–	–	EKG pattern after treatment in reversal experiment [5]: reverted to a more normal pattern; evidence of ischemia in EKG in reversal experiment [5]: some evidence of ischemia; survival in reversal experiment [5]: survived
c1cc(CNCCCCNCc2ccncc2)ccn1 [PYR(4,4,4)]	–	0	5	presented with anti-arrhythmic properties	% SURVIVAL ([1]; dose 231 μmol/kg s.c.): 40%; ARRHYTHMIA (number of animals) ([1]; dose 231 μmol/kg s.c.): 2
NCCCCN [Putrescine(4), Putrescine, reference compound]	no effect on survival	0	5	–	% SURVIVAL ([1]; dose 1240 μmol/kg s.c.): 0%; ARRHYTHMIA (number of animals) ([1]; dose 1240 μmol/kg s.c.): 5; % SURVIVAL ([1]; dose 1861 μmol/kg s.c.): 0%; ARRHYTHMIA (number of animals) ([1]; dose 1861 μmol/kg s.c.): 5
